ChEMBL document CHEMBL1201862, “PubChem BioAssay data set” (2004)
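All cell lines were grown in 96-well plates and treated with compound for 48 hours. Here, GI50 denotes the concentration required for 50% inhibition of growth.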 Calls of active or inactive are those of the source. Cut-off read from the data, not from the text of the source: active = GI50 up to about 1.1 µM and inactive = higher.

Legend:
Test in all cases: NCI tumour cell line growth inhibition, 48 h
SNB-75 = tested on: SNB-75
SN12C = tested on: SN12C
UACC-62 = tested on: UACC-62
HOP-92 = tested on: HOP-92
ACHN = tested on: ACHN
K562 = tested on: K562
SK-MEL-28 = tested on: SK-MEL-28
SNB-19 = tested on: SNB-19
HL-60 = tested on: HL-60
Malme-3M = tested on: Malme-3M
SK-OV-3 = tested on: SK-OV-3
SK-MEL-5 = tested on: SK-MEL-5
NCI-H226 = tested on: NCI-H226
786-0 = tested on: 786-0
A549 = tested on: A549
SF-539 = tested on: SF-539

Measured: GI50

O=[N+]([O-])c1ccc(-c2ccc(-c3csc(Nc4ccccn4)n3)o2)cc1
inactive: SNB-75 > 100 µM | SN12C 41.4 µM | UACC-62 29.9 µM | HOP-92 > 100 µM | ACHN 45.8 µM | K562 66.5 µM | SK-MEL-28 95.7 µM | SNB-19 20.2 µM | HL-60 > 100 µM | Malme-3M 32.3 µM | SK-OV-3 14.3 µM

CCN1C(=O)N2C(OC)c3ccccc3C(Br)C2(OC)C1=O (stereo unspecified)
inactive: SNB-75 48.3 µM | SN12C > 100 µM | SK-MEL-5 > 100 µM | UACC-62 > 100 µM | K562 > 100 µM | SK-MEL-28 > 100 µM | SNB-19 > 100 µM | HL-60 > 100 µM | Malme-3M > 100 µM | SK-OV-3 > 100 µM | NCI-H226 > 100 µM

O=C(Nc1ccccc1-c1n[nH]c(S)nc1=O)C(F)(F)F
inactive: SNB-75 > 100 µM | SN12C > 100 µM | SK-MEL-5 > 100 µM | UACC-62 > 100 µM | HOP-92 > 100 µM | 786-0 > 100 µM | ACHN > 100 µM | K562 > 100 µM | SK-MEL-28 > 100 µM | A549 > 100 µM | SF-539 > 100 µM | SNB-19 > 100 µM | Malme-3M > 100 µM | SK-OV-3 > 100 µM | NCI-H226 > 100 µM

Cn1c(=O)c2c(nc3n2C(CCl)CO3)n(C)c1=O (stereo unspecified)
inactive: SNB-75 > 100 µM | SN12C > 100 µM | SK-MEL-5 > 100 µM | UACC-62 > 100 µM | HOP-92 > 100 µM | 786-0 > 100 µM | ACHN > 100 µM | K562 > 100 µM | SK-MEL-28 > 100 µM | SF-539 > 100 µM | SNB-19 > 100 µM | HL-60 > 100 µM | Malme-3M > 100 µM | SK-OV-3 > 100 µM | NCI-H226 > 100 µM

CC(C)(C)c1ccc(OCCOCCOc2ccc(C(C)(C)C)cc2S(N)(=O)=O)c(S(N)(=O)=O)c1
inactive: SNB-75 > 100 µM | SN12C > 100 µM | SK-MEL-5 8.13 µM | UACC-62 52.1 µM | HOP-92 24.6 µM | 786-0 > 100 µM | ACHN 29.1 µM | K562 > 100 µM | SK-MEL-28 94.6 µM | A549 35.8 µM | SF-539 > 100 µM | SNB-19 > 100 µM | HL-60 14.5 µM | Malme-3M 28.5 µM | SK-OV-3 > 100 µM | NCI-H226 40.7 µM

Cc1ccc(NC(=O)SCCC(=O)O)cc1
inactive: SNB-75 8.95 µM | SN12C > 100 µM | UACC-62 45.7 µM | 786-0 > 100 µM | ACHN > 100 µM | K562 > 100 µM | SK-MEL-28 > 100 µM | A549 > 100 µM | SF-539 > 100 µM | SNB-19 > 100 µM | HL-60 > 100 µM | NCI-H226 > 100 µM

O=c1[nH]c(-c2ccc([N+](=O)[O-])cc2)nc2ccc(Cl)cc12
inactive: SNB-75 57.5 µM | SN12C > 100 µM | SK-MEL-5 > 100 µM | UACC-62 > 100 µM | HOP-92 26.8 µM | 786-0 > 100 µM | ACHN > 100 µM | K562 17.9 µM | SK-MEL-28 > 100 µM | A549 > 100 µM | SF-539 > 100 µM | SNB-19 66.2 µM | Malme-3M > 100 µM | SK-OV-3 77.3 µM | NCI-H226 > 10 µM

CC1(C)OC2C(CO)OC(N/C(=N/C#N)Oc3ccccc3)C2O1 (stereo unspecified)
inactive: SNB-75 75.9 µM | SN12C > 100 µM | SK-MEL-5 > 100 µM | UACC-62 > 100 µM | 786-0 > 10 µM | ACHN > 100 µM | K562 > 100 µM | SK-MEL-28 > 100 µM | A549 > 100 µM | SF-539 > 100 µM | SNB-19 > 100 µM | HL-60 > 100 µM | SK-OV-3 > 100 µM | NCI-H226 > 100 µM

Cn1c(=O)c2ccccc2c2nc3ccccc3nc21
inactive: SNB-75 25.2 µM | SN12C > 100 µM | SK-MEL-5 > 100 µM | UACC-62 > 100 µM | 786-0 97.5 µM | ACHN > 100 µM | K562 > 100 µM | SK-MEL-28 > 100 µM | A549 > 100 µM | SF-539 92.3 µM | SNB-19 > 100 µM | Malme-3M > 100 µM | SK-OV-3 37.2 µM | NCI-H226 > 100 µM

C/C(CC(=O)Nc1cc(Cl)c(Cl)cc1Cl)=N\NC(N)=O
inactive: SNB-75 66.5 µM | SK-MEL-5 > 100 µM | UACC-62 > 100 µM | HOP-92 39.1 µM | 786-0 > 100 µM | K562 > 100 µM | SK-MEL-28 > 100 µM | A549 > 100 µM | SF-539 > 100 µM | HL-60 > 100 µM | Malme-3M > 100 µM | SK-OV-3 > 100 µM | NCI-H226 > 100 µM

O=c1n(C2CCCCC2)c(=C(Cl)Cl)c(=C(Cl)Cl)n1C1CCCCC1
inactive: SNB-75 > 100 µM | SN12C > 100 µM | SK-MEL-5 > 100 µM | UACC-62 > 100 µM | 786-0 > 100 µM | ACHN > 100 µM | K562 > 100 µM | SK-MEL-28 > 100 µM | A549 > 100 µM | SF-539 > 100 µM | SNB-19 > 100 µM | HL-60 39.6 µM | Malme-3M > 100 µM | SK-OV-3 > 100 µM | NCI-H226 > 100 µM

COC(=O)c1c(-c2ccccc2)cc2c3cc(-c4ccccc4)c(C(=O)OC)n3c3ccccc3n12
inactive: SNB-75 20.1 µM | SN12C > 100 µM | SK-MEL-5 > 100 µM | UACC-62 > 100 µM | 786-0 > 100 µM | ACHN > 100 µM | K562 > 100 µM | SK-MEL-28 > 100 µM | A549 > 100 µM | SF-539 > 100 µM | SNB-19 > 100 µM | HL-60 > 100 µM | Malme-3M > 100 µM | SK-OV-3 > 100 µM | NCI-H226 > 100 µM

C/C(=N\NC(=O)C(N)=O)c1c(O)cc(C)oc1=O
inactive: SNB-75 > 100 µM | SN12C > 100 µM | SK-MEL-5 > 100 µM | UACC-62 > 100 µM | HOP-92 > 100 µM | 786-0 > 100 µM | ACHN > 100 µM | K562 > 100 µM | SK-MEL-28 > 100 µM | A549 > 100 µM | SF-539 > 100 µM | SNB-19 > 100 µM | HL-60 > 100 µM | Malme-3M > 100 µM | SK-OV-3 > 100 µM | NCI-H226 > 100 µM

C#Cc1ccccc1C(=O)OC
inactive: SNB-75 11.5 µM | SN12C > 100 µM | SK-MEL-5 > 100 µM | UACC-62 > 100 µM | HOP-92 > 100 µM | ACHN > 100 µM | K562 > 100 µM | SK-MEL-28 > 100 µM | A549 > 100 µM | SF-539 > 100 µM | SNB-19 > 100 µM | HL-60 > 100 µM | Malme-3M > 100 µM | SK-OV-3 > 100 µM | NCI-H226 > 100 µM

O=C(Nc1ccn(CCOC(=O)c2ccccc2)c(=O)n1)c1ccccc1
inactive: SNB-75 > 100 µM | SN12C > 100 µM | SK-MEL-5 > 100 µM | UACC-62 > 100 µM | HOP-92 > 100 µM | 786-0 > 100 µM | ACHN > 100 µM | K562 > 100 µM | SK-MEL-28 > 100 µM | A549 > 100 µM | SF-539 > 100 µM | HL-60 > 100 µM | Malme-3M > 100 µM | SK-OV-3 > 100 µM | NCI-H226 > 100 µM

CC(=O)NNc1nc(C)c(C(=O)/C=C/c2cccc([N+](=O)[O-])c2)s1
inactive: SN12C > 100 µM | SK-MEL-5 > 100 µM | UACC-62 > 100 µM | HOP-92 > 100 µM | 786-0 > 100 µM | K562 > 100 µM | SK-MEL-28 > 100 µM | A549 > 100 µM | SF-539 > 100 µM | SNB-19 > 100 µM | HL-60 > 100 µM | Malme-3M > 100 µM | SK-OV-3 > 100 µM | NCI-H226 > 100 µM

CC1CCC2(CC1)NN=c1s/c(=C\c3ccc(O)cc3)c(=O)n1N2 (stereo unspecified)
inactive: SNB-75 63.5 µM | SN12C > 100 µM | SK-MEL-5 > 100 µM | UACC-62 > 100 µM | 786-0 > 100 µM | K562 > 100 µM | SK-MEL-28 > 100 µM | A549 > 100 µM | SF-539 > 100 µM | SNB-19 > 100 µM | HL-60 > 100 µM | SK-OV-3 > 100 µM | NCI-H226 > 100 µM

COc1ccc(S(=O)(=O)N/N=C/CN2C(=O)c3ccccc3C2=O)cc1OC
inactive: SNB-75 65.2 µM | SK-MEL-5 > 100 µM | UACC-62 > 100 µM | 786-0 > 100 µM | ACHN > 100 µM | K562 > 100 µM | A549 > 100 µM | SF-539 > 100 µM | SNB-19 > 100 µM | HL-60 > 100 µM | Malme-3M > 100 µM | SK-OV-3 > 100 µM

CCOC(=O)NC(=O)c1cn(CCCCCCOC(=O)NCCCCCCNC(=O)OCCCCCCn2cc(C(=O)NC(=O)OCC)c(=O)[nH]c2=O)c(=O)[nH]c1=O
inactive: SNB-75 > 100 µM | SN12C > 100 µM | SK-MEL-5 > 100 µM | UACC-62 > 100 µM | 786-0 > 100 µM | ACHN > 100 µM | K562 > 100 µM | SK-MEL-28 > 100 µM | A549 > 100 µM | SF-539 > 100 µM | SNB-19 > 100 µM | HL-60 > 100 µM | Malme-3M > 100 µM | SK-OV-3 > 100 µM | NCI-H226 > 100 µM
